Like-named read-outs stand apart in the source and are kept apart here.
Columns and labels:
[1] = system: MDCK cells transfected with human OAT-4; test: LDH release in hOAT-4 transfected MDCK cells; type: cell-based, canine; conditions: 50 mM TTA, 72 h
Method: In order to assess the role that OAT transporters may play in tartaric acid induced nephrotoxicity, MDCK cells were transfected with human OAT-4 and treated with 50 mmol/L of potassium bitartrate. Human (h)OAT-4 cDNA (GenScript, Piscataway, NJ) was purchased and transformed using E. coli (New England Biolabs, Ipswich, MA) to produce higher amounts of cDNA to be used in transfection. E. coli was transformed per New England Biolab's protocol. Briefly, E. coli was thawed, plasmid cDNA was added, and then mixed with manufacturer's SOC solution. The mixture was allowed to incubate at 37° C. for 60 minutes, and was then spread on LB agar ampicillin-100 plates (Sigma Aldrich, St. Louis, MO) and allowed to incubate for 24 hours at 37° C. Colonies were then collected, placed into a solution of LB […] ampicillin-100 broth, and incubated overnight.
Human OAT-4 plasmid preparation with the amplified E. coli was completed using the PureYield Plasmid Miniprep System (Promega, Madison, WI) following manufacturers protocol. Briefly, 4 mL of culture was collected and centrifuged. The supernatant was removed, and the cell pellet was resuspended in 600 μL 1xPBS. […] The concentration of the elucidated cDNA was then measured using a NanoDrop spectrophotometer (yielding cDNA ranging from 264.8 to 762.8 ng/uL). […]
(§1) Absorbance was read at 450 nm.

canines = conditions: grape ingestion, tartaric acid equivalent; cited from earlier work
HK-2 cells = test: LDH release cytotoxicity of tartaric acid in HK-2 cells; type: cell-based, human
From the text: as §1

MDCK cells [2] = test: Probenecid prevention of tartaric acid induced LDH release in MDCK cells
Method: When conducting experiments with probenecid (Sigma Aldrich, St. Louis, MO), a stock solution of 2 mmol/L in complete media was made at pH 7.4, then mixed with either complete media or 100 mmol/L tartaric acid to yield both solutions of 1 mmol/L and 500 μmol/L and solutions of 1 mmol/L probenecid+50 mmol/L potassium bitartrate, as well as 500 μmol/L+50 mmol/L potassium bitartrate. MDCK cells were treated and allowed to incubate for 72 hours.
as §1
As TTA is a common, dietary dicarboxylic acid, it is believed to be renally excreted via organic anion-handling transporters. Therefore, to assess the role of OAT-mediated TTA transport, MDCK cells were exposed to 50 mM tartaric acid alone or in combination with 1 mM or 0.5 mM probenecid; a known OAT-1 inhibitor.

MDCK cells [3] = test: ATP depletion in MDCK cells (CellTiter Glo assay); type: cell-based, canine
Method: TTA concentration groups were compared to media alone (Neg.) using one-way ANOVA followed by a Dunnett's post-hoc test. (n=3/group). * p<0.05; ** p<0.005; *** p<0.001; **** p<0.0001.
500 μM probenecid (PBD) protected MDCK cells from 25 mM and 50 mM TTA-induced ATP depletion at 12 & 72 h, assessed using a CellTiter Glo® assay. Groups were compared using one-way ANOVA followed by a Tukey's post-hoc test. (n=3); ***p<0.001, **** p<0.0001 compared to media; $p<0.05 compared to 25 or 50 mM TTA alone.
ATP depletion was determined in MDCK cells as another measure of cytotoxicity of TTA. The results shown in FIG. 3 indicate that ATP depletion was both time-and dose-dependent. In FIG. 4, it can be observed that dose-response curves were obtained for TTA-induced ATP depletion, and the cells became more sensitive at each increasing dose, and with increasing time of exposure to TTA. This established the MDCK cell culture model as a valid predictor of TTA-induced renal pathology in canine kidney in vitro.

MDCK cells [4] = system: MDCK cells
Method: MDCK cells were maintained in EMEM media supplemented with 10% Fetal Bovine Serum and 1% streptomycin. […] Both cell lines were incubated at 37° C. and 5% CO2 until confluency.
For experiments, both cell lines were incubated in triplicate with an endpoint of 72 hours. Treatment concentrations were made using a stock solution of 100 mmol/L potassium bitartrate in complete media. Final treatment concentrations of 5, 10, 25, 50, 75, and 100 mmol/L were reached via serial dilution. To mimic physiological pH of 7.4, 10N NaOH and 10M HCl were used. A positive control of 0.005% hydrogen peroxide was also used.
Release of lactate dehydrogenase (LDH) from the cytosol in response to plasma membrane damage is a common measure of necrotic cell death and was measured utilizing the LDH-Cytotoxicity assay kit according to the manufacturer's protocol (BioVision, Milpitas, CA). Briefly, media from treated MDCK or HK-2 cells was removed and samples placed into a 96 well plate in duplicate. A mixture of WST kit reagent and buffer in a 25:1 ratio was then added to each well. The plate was covered and allowed to incubate at room temperature for 30 minutes. Absorbance was read at 450 nm. To normalize for potential cell confluency differences, cells were solubilized with 0.05% Triton-X, and cellular protein was analyzed using the bicinchoninic acid (BCA) method.

renal tubular excretion = conditions: canines, effect plateaus at this dose; cited from earlier work
dogs = conditions: cited from earlier work

In the case of `O=C(O)C(O)C(O)C(=O)O` (stereo not drawn) [TTA, tartaric acid], the LDH release [1] is given as 1.213, the “ingested dose (as tartaric acid) resulting in significant nephrotoxicity” value (canines) is given as 196 to 1484 mg/kg and the LDH release (HK-2 cells; HK-2 cells, 72 h, pH 7.4, 5-100 mmol/L, vs negative control) is given as “no statistically significant increase in LDH release”. For the same compound, the “TTA-induced LDH release, HK-2 vs. MDCK cells” value (HK-2 cells; same exposure concentrations across species, two-way ANOVA) was “no significant difference”, the LDH release (MDCK cells [2]; 50 mM TTA alone, 72 h (probenecid experiment)) was 4.302 and the ATP depletion (MDCK cells [3]; function of time and dose of TTA exposure) was “induced significant ATP depletion”. The LDH release (MDCK cells [4]; MDCK cells, 10 mM, 72 h, pH 7.4) was 1.769, the LDH release (MDCK cells [4]; MDCK cells, 25 mM, 72 h, pH 7.4) was 1.472 and the LDH release (MDCK cells [4]; MDCK cells, 50 mM, 72 h, pH 7.4) was 1.646. For the same compound, the LDH release (MDCK cells [4]; MDCK cells, 75 mM, 72 h, pH 7.4) was 2.540, the LDH release (MDCK cells [4]; MDCK cells, 100 mM, 72 h, pH 7.4) was 1.778 and the “lowest concentration with significant increase in TTA-induced cytotoxicity” value (MDCK cells [4]; MDCK cells, 72 h of exposure, vs controls) was 10 mmol/L. The LDH release (MDCK cells [4]; non-transfected MDCK cells, 50 mM TTA, 72 h (transfection experiment)) was 2.807.
In the case of `CCCN(CCC)S(=O)(=O)c1ccc(C(=O)O)cc1` [probenecid, 4-(dipropylsulfamoyl)benzoic acid], the “oral dose enough to completely suppress renal tubular excretion” value (renal tubular excretion) is given as 6 mg/kg, the LD50 (dogs; IV) is given as 270 mg/kg and the therapeutic index (dogs) is given as “high”. The “prevention of TTA-induced cytotoxicity” value (MDCK cells [2]; 500 μM and 1 mM probenecid) was “completely prevented”, the LDH release (MDCK cells [2]; 0.5 mM probenecid + 50 mM TTA, 72 h) was 1.658 and the LDH release (MDCK cells [2]; 1 mM probenecid + 50 mM TTA, 72 h) was 1.518. For the same compound, the “cell death by probenecid alone” value (MDCK cells [2]; probenecid alone at 0.5 mM or 1 mM, 72 h) was “did not induce significant cell death” and the “protection from TTA-induced ATP depletion” value (MDCK cells [3]; 500 μM probenecid, 25 mM and 50 mM TTA, 12 & 72 h) was “protected”.

— US20260165990A1, “Treatment of Tartaric Acid Toxicity in Dogs with Probenecid” (priority 2022, published 2026)
